Test system: RNA Polymerase III
Assay: Promoter activity transfection assay with Pol III inhibitor ML-60218
Type: cell-based, human
Settings: after 24 hours of cell treatment with ML-60218 (20 μM); hairpin constructs with novel promoters
Procedure: For transient transfections Hela cells (grown in DMEM supplemented with 10% FCS), were grown in multiwell Petri dishes 16 hours before transfection. The expression [21A, 21A(1), 21A(2), 21A(3)] constructs containing the regions of interest cloned in the pTopo vectors (Invitrogen) were introduced into the cells using the Fugene 6 transfection reagent (Roche) according to the manufacturer's instructions. A plasmid Expressing Luciferase was used as control of transfection efficiency (to which all the results were normalized). 24, 48 and 72 hours after transfection cells were harvested and firely luciferase activity was measured by Dual-Luciferase reporter assay system (Promega). manufacturer's protocol.

- luciferase signal: increased
Compound: Cc1c(-c2cc(NS(=O)(=O)c3ccccc3Cl)n(C)n2)sc2ccc(Cl)cc12 [ML-60218]

Reference: patent US8481708B2, “snRNA gene-like transcriptional units and uses thereof” (Università degli Studi di Genova, priority 2005, dated 2013)
